Measurements reported in ChEMBL document CHEMBL1806489, “Synthesis and biological evaluation of novel F-18 labeled pyrazolo[1,5-a]pyrimidine derivatives: potential PET imaging agents for tumor detection” (Bioorg Med Chem Lett, 2011).

Legend:
Mus musculus [1] = assay: Biodistribution in mouse S180 cells xenografted Kunming mouse tumor at 370 kBq/0.1 mL, iv after 120 mins by gamma counting; assay type: ADME, organism-based, Neoplasm, CCRF S-180; conditions: in vivo, 2 h
Blood [2] = assay: Biodistribution in mouse S180 cells xenografted Kunming mouse blood at 370 kBq/0.1 mL, iv after 15 mins by gamma counting; assay type: ADME, organism-based, CCRF S-180; conditions: in vivo, 0.25 h
Nucleic Acid [3] = assay: Ratio of drug level in tumor to blood in mouse S180 cells xenografted Kunming mouse at 370 kBq/0.1 mL, iv after 30 mins by gamma counting; assay type: ADME, organism-based, CCRF S-180; conditions: tumour, 0.5 h
Liver [4] = assay: Biodistribution in mouse S180 cells xenografted Kunming mouse liver at 370 kBq/0.1 mL, iv after 5 mins by gamma counting; assay type: ADME, organism-based, CCRF S-180; conditions: in vivo
Muscle tissue [5] = assay: Biodistribution in mouse S180 cells xenografted Kunming mouse muscle at 370 kBq/0.1 mL, iv after 120 mins by gamma counting; assay type: ADME, organism-based, CCRF S-180; conditions: in vivo, 2 h
Nucleic Acid [6] = assay: Ratio of drug level in tumor to blood in mouse S180 cells xenografted Kunming mouse at 370 kBq/0.1 mL, iv after 60 mins by gamma counting; assay type: ADME, organism-based, CCRF S-180; conditions: tumour, 1 h
Plasma = assay: Metabolic stability in mouse plasma at 3.7 MBq after 1 to 2 hrs; assay type: ADME, cell-free
Nucleic Acid [7] = assay: Ratio of drug level in tumor to muscle in mouse S180 cells xenografted Kunming mouse at 370 kBq/0.1 mL, iv after 5 mins by gamma counting; assay type: ADME, organism-based, CCRF S-180; conditions: in vivo
Nucleic Acid [8] = assay: Ratio of drug level in tumor to brain in mouse S180 cells xenografted Kunming mouse at 370 kBq/0.1 mL, iv after 15 mins by gamma counting; assay type: ADME, organism-based, CCRF S-180; conditions: in vivo, 0.25 h
Liver [9] = assay: Biodistribution in mouse S180 cells xenografted Kunming mouse liver at 370 kBq/0.1 mL, iv after 120 mins by gamma counting; assay type: ADME, organism-based, CCRF S-180; conditions: in vivo, 2 h
Kidney [10] = assay: Biodistribution in mouse S180 cells xenografted Kunming mouse kidney at 370 kBq/0.1 mL, iv after 120 mins by gamma counting; assay type: ADME, organism-based, CCRF S-180; conditions: in vivo, 2 h
Muscle tissue [11] = assay: Biodistribution in mouse S180 cells xenografted Kunming mouse muscle at 370 kBq/0.1 mL, iv after 5 mins by gamma counting; assay type: ADME, organism-based, CCRF S-180; conditions: in vivo
Brain [12] = assay: Biodistribution in mouse S180 cells xenografted Kunming mouse brain at 370 kBq/0.1 mL, iv after 30 mins by gamma counting; assay type: ADME, organism-based, CCRF S-180; conditions: in vivo, 0.5 h
Brain [13] = assay: Biodistribution in mouse S180 cells xenografted Kunming mouse brain at 370 kBq/0.1 mL, iv after 5 mins by gamma counting; assay type: ADME, organism-based, CCRF S-180; conditions: in vivo
Spleen [14] = assay: Biodistribution in mouse S180 cells xenografted Kunming mouse spleen at 370 kBq/0.1 mL, iv after 30 mins by gamma counting; assay type: ADME, organism-based, CCRF S-180; conditions: in vivo, 0.5 h
Lung [15] = assay: Biodistribution in mouse S180 cells xenografted Kunming mouse lung at 370 kBq/0.1 mL, iv after 5 mins by gamma counting; assay type: ADME, organism-based, CCRF S-180; conditions: in vivo
Blood [16] = assay: Biodistribution in mouse S180 cells xenografted Kunming mouse blood at 370 kBq/0.1 mL, iv after 30 mins by gamma counting; assay type: ADME, organism-based, CCRF S-180; conditions: in vivo, 0.5 h
Kidney [17] = assay: Biodistribution in mouse S180 cells xenografted Kunming mouse kidney at 370 kBq/0.1 mL, iv after 30 mins by gamma counting; assay type: ADME, organism-based, CCRF S-180; conditions: in vivo, 0.5 h
Mus musculus [18] = assay: Biodistribution in mouse S180 cells xenografted Kunming mouse tumor at 370 kBq/0.1 mL, iv after 5 mins by gamma counting; assay type: ADME, organism-based, Neoplasm, CCRF S-180; conditions: in vivo
Nucleic Acid [19] = assay: Ratio of drug level in tumor to brain in mouse S180 cells xenografted Kunming mouse at 370 kBq/0.1 mL, iv after 30 mins by gamma counting; assay type: ADME, organism-based, CCRF S-180; conditions: in vivo, 0.5 h
Heart [20] = assay: Biodistribution in mouse S180 cells xenografted Kunming mouse heart at 370 kBq/0.1 mL, iv after 5 mins by gamma counting; assay type: ADME, organism-based, CCRF S-180; conditions: in vivo
[21] = Partition coefficient, log P of the compound; assay type: physicochemical; conditions: octanol/water
Lung [22] = assay: Biodistribution in mouse S180 cells xenografted Kunming mouse lung at 370 kBq/0.1 mL, iv after 120 mins by gamma counting; assay type: ADME, organism-based, CCRF S-180; conditions: in vivo, 2 h
Mus musculus [23] = assay: Biodistribution in mouse S180 cells xenografted Kunming mouse tumor at 370 kBq/0.1 mL, iv after 30 mins by gamma counting; assay type: ADME, organism-based, Neoplasm, CCRF S-180; conditions: in vivo, 0.5 h
Muscle tissue [24] = assay: Biodistribution in mouse S180 cells xenografted Kunming mouse muscle at 370 kBq/0.1 mL, iv after 30 mins by gamma counting; assay type: ADME, organism-based, CCRF S-180; conditions: in vivo, 0.5 h
Kidney [25] = assay: Biodistribution in mouse S180 cells xenografted Kunming mouse kidney at 370 kBq/0.1 mL, iv after 60 mins by gamma counting; assay type: ADME, organism-based, CCRF S-180; conditions: in vivo, 1 h
Lung [26] = assay: Biodistribution in mouse S180 cells xenografted Kunming mouse lung at 370 kBq/0.1 mL, iv after 30 mins by gamma counting; assay type: ADME, organism-based, CCRF S-180; conditions: in vivo, 0.5 h
Muscle tissue [27] = assay: Biodistribution in mouse S180 cells xenografted Kunming mouse muscle at 370 kBq/0.1 mL, iv after 15 mins by gamma counting; assay type: ADME, organism-based, CCRF S-180; conditions: in vivo, 0.25 h
Kidney [28] = assay: Biodistribution in mouse S180 cells xenografted Kunming mouse kidney at 370 kBq/0.1 mL, iv after 15 mins by gamma counting; assay type: ADME, organism-based, CCRF S-180; conditions: in vivo, 0.25 h
Lung [29] = assay: Biodistribution in mouse S180 cells xenografted Kunming mouse lung at 370 kBq/0.1 mL, iv after 15 mins by gamma counting; assay type: ADME, organism-based, CCRF S-180; conditions: in vivo, 0.25 h
Nucleic Acid [30] = assay: Ratio of drug level in tumor to muscle in mouse S180 cells xenografted Kunming mouse at 370 kBq/0.1 mL, iv after 15 mins by gamma counting; assay type: ADME, organism-based, CCRF S-180; conditions: in vivo, 0.25 h
Liver [31] = assay: Biodistribution in mouse S180 cells xenografted Kunming mouse liver at 370 kBq/0.1 mL, iv after 15 mins by gamma counting; assay type: ADME, organism-based, CCRF S-180; conditions: in vivo, 0.25 h
Nucleic Acid [32] = assay: Ratio of drug level in tumor to blood in mouse S180 cells xenografted Kunming mouse at 370 kBq/0.1 mL, iv after 15 mins by gamma counting; assay type: ADME, organism-based, CCRF S-180; conditions: tumour, 0.25 h
Nucleic Acid [33] = assay: Ratio of drug level in tumor to blood in mouse S180 cells xenografted Kunming mouse at 370 kBq/0.1 mL, iv after 120 mins by gamma counting; assay type: ADME, organism-based, CCRF S-180; conditions: tumour, 2 h
Spleen [34] = assay: Biodistribution in mouse S180 cells xenografted Kunming mouse spleen at 370 kBq/0.1 mL, iv after 15 mins by gamma counting; assay type: ADME, organism-based, CCRF S-180; conditions: in vivo, 0.25 h
Heart [35] = assay: Biodistribution in mouse S180 cells xenografted Kunming mouse heart at 370 kBq/0.1 mL, iv after 60 mins by gamma counting; assay type: ADME, organism-based, CCRF S-180; conditions: in vivo, 1 h
Blood [36] = assay: Biodistribution in mouse S180 cells xenografted Kunming mouse blood at 370 kBq/0.1 mL, iv after 120 mins by gamma counting; assay type: ADME, organism-based, CCRF S-180; conditions: in vivo, 2 h
Liver [37] = assay: Biodistribution in mouse S180 cells xenografted Kunming mouse liver at 370 kBq/0.1 mL, iv after 30 mins by gamma counting; assay type: ADME, organism-based, CCRF S-180; conditions: in vivo, 0.5 h
Spleen [38] = assay: Biodistribution in mouse S180 cells xenografted Kunming mouse spleen at 370 kBq/0.1 mL, iv after 120 mins by gamma counting; assay type: ADME, organism-based, CCRF S-180; conditions: in vivo, 2 h
Heart [39] = assay: Biodistribution in mouse S180 cells xenografted Kunming mouse heart at 370 kBq/0.1 mL, iv after 30 mins by gamma counting; assay type: ADME, organism-based, CCRF S-180; conditions: in vivo, 0.5 h
Nucleic Acid [40] = assay: Ratio of drug level in tumor to brain in mouse S180 cells xenografted Kunming mouse at 370 kBq/0.1 mL, iv after 120 mins by gamma counting; assay type: ADME, organism-based, CCRF S-180; conditions: in vivo, 2 h
Heart [41] = assay: Biodistribution in mouse S180 cells xenografted Kunming mouse heart at 370 kBq/0.1 mL, iv after 120 mins by gamma counting; assay type: ADME, organism-based, CCRF S-180; conditions: in vivo, 2 h
Brain [42] = assay: Biodistribution in mouse S180 cells xenografted Kunming mouse brain at 370 kBq/0.1 mL, iv after 60 mins by gamma counting; assay type: ADME, organism-based, CCRF S-180; conditions: in vivo, 1 h

Drug uptake (Mus musculus [1]): 2.88 % ID/g
Drug uptake (Blood [2]): 4.65 % ID/g
Ratio (Nucleic Acid [3]): 1.23
Drug uptake (Liver [4]): 6.99 % ID/g
Drug uptake (Muscle tissue [5]): 2.64 % ID/g
Ratio (Nucleic Acid [6]): 0.81
Stability (Plasma): Stable
Ratio (Nucleic Acid [7]): 0.47
Ratio (Nucleic Acid [8]): 1.62
Drug uptake (Liver [9]): 1.84 % ID/g
Drug uptake (Kidney [10]): 1.92 % ID/g
Drug uptake (Muscle tissue [11]): 3.99 % ID/g
Drug uptake (Brain [12]): 2.47 % ID/g
Drug uptake (Brain [13]): 3.17 % ID/g
Drug uptake (Spleen [14]): 3.43 % ID/g
Drug uptake (Lung [15]): 6.61 % ID/g
Drug uptake (Blood [16]): 4.49 % ID/g
Drug uptake (Kidney [17]): 3.28 % ID/g
Drug uptake (Mus musculus [18]): 1.88 % ID/g
Ratio (Nucleic Acid [19]): 2.23
Drug uptake (Heart [20]): 5.53 % ID/g
logP [21]: 0.68
Drug uptake (Lung [22]): 2.54 % ID/g
Drug uptake (Mus musculus [23]): 5.51 % ID/g
Drug uptake (Muscle tissue [24]): 3.05 % ID/g
Drug uptake (Kidney [25]): 2.58 % ID/g
Drug uptake (Lung [26]): 3.77 % ID/g
Drug uptake (Muscle tissue [27]): 3.84 % ID/g
Drug uptake (Kidney [28]): 5.04 % ID/g
Drug uptake (Lung [29]): 3.79 % ID/g
Ratio (Nucleic Acid [30]): 1.14
Drug uptake (Liver [31]): 4.02 % ID/g
Ratio (Nucleic Acid [32]): 0.94
Ratio (Nucleic Acid [33]): 0.98
Drug uptake (Spleen [34]): 3.42 % ID/g
Drug uptake (Heart [35]): 3.46 % ID/g
Drug uptake (Blood [36]): 2.95 % ID/g
Drug uptake (Liver [37]): 3.17 % ID/g
Drug uptake (Spleen [38]): 2.15 % ID/g
Drug uptake (Heart [39]): 4.06 % ID/g
Ratio (Nucleic Acid [40]): 1.61
Drug uptake (Heart [41]): 2.59 % ID/g
Drug uptake (Brain [42]): 1.93 % ID/g
Compound: Cc1cc(NCC[18F])n2ncc(C#N)c2n1
